Results as given in US7070978B2, “Method for expressing and purifying proteins using budded baculovirus” (Toudai TLO, Ltd., priority 2001, dated 2006).

Molecular target: S1P (Homo sapiens, UniProt Q14703)
Conditions: 10 mM EDTA; SREBP2-BV + S1P-BV, 5 mM calcium, 37° C. for 12 hours, Western blot with anti-serum R004
Protocol: Sf9 cells were infected with recombinant viruses of S1P or SREBP at MOI 5. 72 hours later, the BV fraction was recovered by centrifugation as in Examples 1 and 2, and then suspended in TBS buffer (10 mM Tris, 150 mM NaCl, pH7.5). BV suspended in TBS was subjected to a protein determination with a protein determination kit (Bio-Rad). Reaction solutions of SREBP2-BV as a substrate and S1P-BV as an enzyme were prepared to have respective final concentrations of 10 μg per reaction solution. In addition, calcium ions required for activation of S1P were added to the reaction solution at a concentration, as calcium acetate, which enables to measure activity. Calcium, EDTA (pH7.4) and EGTA (pH7.4) were added to BV solution, and then added with TBS buffer (pH7.4) to a reaction volume of 20 μl, followed by incubation at 37° C. for 12 hours. Following reaction, the solution was subjected to heat treatment with 5×SDS sample buffer at 95° C. for 10 minutes, subjected to 8% SDS-PAGE and Western blot using rabbit anti-serum R004 against the amino terminal of SREBP2.
BV expressing SREBP or S1P was mixed, incubated at 37° C. for 12 hours, and then allowed to react in the presence of 5 mM calcium.

Sequence of S1P (Q14703 187-1052): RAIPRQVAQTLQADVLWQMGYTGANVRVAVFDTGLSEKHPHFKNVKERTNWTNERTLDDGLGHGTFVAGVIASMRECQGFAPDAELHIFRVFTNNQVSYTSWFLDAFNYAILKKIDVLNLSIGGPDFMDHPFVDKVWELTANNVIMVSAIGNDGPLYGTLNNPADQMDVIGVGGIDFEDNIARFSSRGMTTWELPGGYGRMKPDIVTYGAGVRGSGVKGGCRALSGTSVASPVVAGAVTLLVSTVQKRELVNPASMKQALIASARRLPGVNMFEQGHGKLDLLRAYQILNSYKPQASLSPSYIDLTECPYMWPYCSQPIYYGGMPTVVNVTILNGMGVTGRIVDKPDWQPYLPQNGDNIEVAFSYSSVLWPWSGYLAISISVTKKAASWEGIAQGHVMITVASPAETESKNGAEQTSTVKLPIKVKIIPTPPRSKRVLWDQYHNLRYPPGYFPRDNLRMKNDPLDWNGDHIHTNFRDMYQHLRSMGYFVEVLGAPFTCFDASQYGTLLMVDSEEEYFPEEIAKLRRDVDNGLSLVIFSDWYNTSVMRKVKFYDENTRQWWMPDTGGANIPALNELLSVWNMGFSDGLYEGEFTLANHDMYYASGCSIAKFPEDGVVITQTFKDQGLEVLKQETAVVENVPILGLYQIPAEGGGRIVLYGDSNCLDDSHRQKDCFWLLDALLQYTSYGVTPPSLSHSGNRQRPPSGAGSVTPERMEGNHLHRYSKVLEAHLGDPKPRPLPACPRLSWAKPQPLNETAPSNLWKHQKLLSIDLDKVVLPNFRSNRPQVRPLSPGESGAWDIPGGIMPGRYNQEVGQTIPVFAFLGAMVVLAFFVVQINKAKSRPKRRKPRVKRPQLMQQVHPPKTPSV

inhibition of degradation (cleavage) of SREBP2 by S1P: completely inhibited
SMILES: O=C(O)CN(CCN(CC(=O)O)CC(=O)O)CC(=O)O [EDTA]
